Laboratory results as given in patent US9770023B2, “Active compound combinations comprising phenylamidine compounds and further fungicides” (BAYER CROPSCIENCE AKTIENGESELLSCHAFT, priority 2014, dated 2017).

Legend:
Alternaria solani = experiment: in vivo preventive test on Alternaria test (tomatoes)
Protocol: [table] To produce a suitable preparation of active compound, 1 part by weight of active compound is mixed with the stated amounts of solvent and emulsifier, and the concentrate is diluted with water to the desired concentration. To test for preventive activity, young plants are sprayed with the preparation of active compound at the stated rate of application. After the spray coating has dried on, the plants are inoculated with an aqueous spore suspension of Alternaria solani. The plants are then placed in an incubation cabinet at approximately 20° C. and a relative atmospheric humidity of 100%. The test is evaluated 3 days after the inoculation. 0% means an efficacy which corresponds to that of the untreated control while an efficacy of 100% means that no disease is observed.

Phakopsora pachyrhizi = experiment: in vivo preventive test on Phakopsora test (soybeans)
Protocol: To produce a suitable preparation of active compound, 1 part by weight of active compound is mixed with the stated amounts of solvent and emulsifier, and the concentrate is diluted with water to the desired concentration. To test for preventive activity, young plants are sprayed with the preparation of active compound at the stated rate of application. After the spray coating has dried on, the plants are inoculated with an aqueous spore suspension of the causal agent of soybean rust (Phakopsora pachyrhizi) and stay for 24 h without light in an incubation cabinet at approximately 24° C. and a relative atmospheric humidity of 95%. The plants remain in the incubation cabinet at approximately 24° C. and a relative atmospheric humidity of approximately 80% and a day/night interval of 12 h.
The test is evaluated 7 days after the inoculation. 0% means an efficacy which corresponds to that of the untreated control, while an efficacy of 100% means that no disease is observed.

Puccinia triticina = experiment: in vivo preventive Puccinia triticina test (wheat); conditions: Table E1, 8 days after inoculation
Protocol: To produce a suitable preparation of active compound, 1 part by weight of active compound or active compound combination is mixed with the stated amounts of solvent and emulsifier, and the concentrate is diluted with water to the desired concentration.
To test for preventive activity, young plants are sprayed with the preparation of active compound or active compound combination at the stated rate of application. After the spray coating has been dried, the plants are sprayed with a spore suspension of Puccinia triticina. The plants remain for 48 hours in an incubation cabinet at approximately 20° C. and a relative atmospheric humidity of approximately 100%. The plants are placed in the greenhouse at a temperature of approximately 20° C. and a relative atmospheric humidity of approximately 80%.
The test is evaluated 8 days after the inoculation. 0% means an efficacy which corresponds to that of the untreated control, while an efficacy of 100% means that no disease is observed.

Leptosphaeria nodorum = experiment: in vivo preventive Leptosphaeria nodorum test (wheat); conditions: Table C1, 8 days after inoculation
Protocol: (§1) [table] To produce a suitable preparation of active compound, 1 part by weight of active compound or active compound combination is mixed with the stated amounts of solvent and emulsifier, and the concentrate is diluted with water to the desired concentration. To test for preventive activity, young plants are sprayed with the preparation of active compound or active compound combination at the stated rate of application. After the spray coating has been dried, the plants are sprayed with a spore suspension of Leptosphaeria nodorum. The plants remain for 48 hours in an incubation cabinet at approximately 20° C. and a relative atmospheric humidity of approximately 100%. The plants are placed in the greenhouse at a temperature of approximately 25° C. and a relative atmospheric humidity of approximately 80%. The test is evaluated 8 days after the inoculation. 0% means an efficacy which corresponds to that of the untreated control, while an efficacy of 100% means that no disease is observed.

Septoria tritici = experiment: in vivo preventive Septoria tritici test (wheat)
Protocol: as §1, with “suspension of Septoria tritici. The plants” for “suspension of Leptosphaeria nodorum. The plants”, “of approximately 100% and afterwards for 60 hours at approximately 15° C. in a translucent incubation cabinet at a relative atmospheric humidity of approximately 100%. The” for “of approximately 100%. The”, “of approximately 15° C. and” for “of approximately 25° C. and”, “is evaluated 21 days after” for “is evaluated 8 days after”

[1] = test system: Blumeria graminis f.sp. hordei; experiment: in vivo preventive Blumeria test (barley)
Protocol: [table] To produce a suitable preparation of active compound, 1 part by weight of active compound or active compound combination is mixed with the stated amounts of solvent and emulsifier, and the concentrate is diluted with water to the desired concentration. To test for preventive activity, young plants are sprayed with the preparation of active compound or active compound combination at the stated rate of application. After the spray coating has been dried, the plants are dusted with spores of Blumeria graminis f.sp. hordei. The plants are placed in the greenhouse at a temperature of approximately 18° C. and a relative atmospheric humidity of approximately 80% to promote the development of mildew pustules. The test is evaluated 7 days after the inoculation. 0% means an efficacy which corresponds to that of the untreated control, while an efficacy of 100% means that no disease is observed.

Pyrenophora teres = experiment: in vivo preventive Pyrenophora teres test (barley); conditions: Table F1, 8 days after inoculation
Protocol: as §1, with “Pyrenophora teres.” for “Leptosphaeria nodorum.”, “20°” for “25°”

[2] = Table A1, 3 days after inoculation, 1 ppm a.i.
[3] = Table D1, 7 days after inoculation, 0.1 ppm a.i.
[4] = Table D1, 7 days after inoculation, 0.2 ppm a.i.
[5] = Table G1, 21 days after inoculation, 20 ppm a.i.
[6] = Table G2, 21 days after inoculation, 40 ppm a.i.
[7] = Table B1, 7 days after inoculation, 40 ppm a.i.
[8] = Table B2, 7 days after inoculation, 10 ppm a.i.
[9] = Table B2, 7 days after inoculation, 40 ppm a.i.
[10] = Table D3, 7 days after inoculation, 10 ppm a.i.
[11] = Table D2, 7 days after inoculation, 0.5 ppm a.i.
[12] = Table D2, 7 days after inoculation, 1 ppm a.i.
[13] = Table A2, 3 days after inoculation, 2 ppm a.i.
[14] = Table A2, 3 days after inoculation, 4 ppm a.i.
[15] = Table D3, 7 days after inoculation, 2 ppm a.i.

CCN(C)/C=N/c1cc(C)c(Oc2ccccc2)cc1C [(I-d), N′-(2,5-dimethyl-4-phenoxyphenyl)-N-ethyl-N-methylimidoformamide]
Efficacy in % found (Alternaria solani; Table A1, 3 days after inoculation, 0.5 ppm a.i.): 8% | Efficacy in % found (Alternaria solani; [2]): 15% | Efficacy in % found (Alternaria solani; Table A2, 3 days after inoculation, 0.1 ppm a.i.): 0% | Efficacy in % found (Alternaria solani; Table A2, 3 days after inoculation, 0.2 ppm a.i.): 0% | Efficacy in % found (Phakopsora pachyrhizi; Table D1, 7 days after inoculation, 0.05 ppm a.i.): 0% | Efficacy in % found (Phakopsora pachyrhizi; [3]): 23% | Efficacy in % found (Phakopsora pachyrhizi; [4]): 86% | Efficacy in % found (Phakopsora pachyrhizi; Table D2, 7 days after inoculation, 0.05 ppm a.i.): 0% | Efficacy in % found (Phakopsora pachyrhizi; Table D2, 7 days after inoculation, 0.1 ppm a.i.): 0% | Efficacy in % found (Phakopsora pachyrhizi; Table D2, 7 days after inoculation, 0.2 ppm a.i.): 23% | Efficacy in % found (Phakopsora pachyrhizi; Table D3, 7 days after inoculation, 0.05 ppm a.i.): 0% | Efficacy in % found (Phakopsora pachyrhizi; Table D3, 7 days after inoculation, 0.1 ppm a.i.): 0% | Efficacy in % found (Puccinia triticina; 40 ppm a.i.): 57% | Efficacy in % found (Leptosphaeria nodorum; 80 ppm a.i.): 29% | Efficacy in % found (Septoria tritici; [5]): 14% | Efficacy in % found (Septoria tritici; Table G1, 21 days after inoculation, 40 ppm a.i.): 14% | Efficacy in % found (Septoria tritici; [6]): 0% | Efficacy in % found (Septoria tritici; Table G2, 21 days after inoculation, 80 ppm a.i.): 0% | Efficacy in % found [1, 7]: 33% | Efficacy in % found [1, 8]: 0% | Efficacy in % found ([1]; Table B2, 7 days after inoculation, 20 ppm a.i.): 0% | Efficacy in % found [1, 9]: 0% | Efficacy in % found ([1]; Table B2, 7 days after inoculation, 80 ppm a.i.): 22% | Efficacy in % found (Pyrenophora teres; 80 ppm a.i.): 29%

Cn1cc(C(=O)Nc2ccc(F)cc2-c2ccc(Cl)c(Cl)c2)c(C(F)F)n1 [(B.1), bixafen]
Efficacy in % found (Alternaria solani; [2]): 40% | Efficacy in % found (Phakopsora pachyrhizi; Table D1, 7 days after inoculation, 10 ppm a.i.): 0% | Efficacy in % found (Phakopsora pachyrhizi; [10]): 0% | Efficacy in % found (Leptosphaeria nodorum; 80 ppm a.i.): 0% | Efficacy in % found (Septoria tritici; [6]): 0% | Efficacy in % found [1, 9]: 0%

CO/C=C(/C(=O)OC)c1ccccc1Oc1cc(Oc2ccccc2C#N)ncn1 [(C.1), azoxystrobin]
Efficacy in % found (Alternaria solani; Table A2, 3 days after inoculation, 1 ppm a.i.): 46% | Efficacy in % found (Phakopsora pachyrhizi; [11]): 20% | Efficacy in % found (Phakopsora pachyrhizi; [12]): 68% | Efficacy in % found (Phakopsora pachyrhizi; Table D3, 7 days after inoculation, 0.5 ppm a.i.): 23% | Efficacy in % found (Puccinia triticina; 10 ppm a.i.): 71% | Efficacy in % found (Septoria tritici; Table G2, 21 days after inoculation, 10 ppm a.i.): 0% | Efficacy in % found (Pyrenophora teres; 20 ppm a.i.): 71%

O=C(NCCc1ncc(C(F)(F)F)cc1Cl)c1ccccc1C(F)(F)F [(B.2), fluopyram]
Efficacy in % found (Alternaria solani; [13]): 30% | Efficacy in % found [1, 9]: 11%

Cn1cc(C(=O)Nc2cccc3c2[C@@H]2CC[C@H]3C2=C(Cl)Cl)c(C(F)F)n1 (racemic) [(B.6), benzovindiflupyr]
Efficacy in % found (Alternaria solani; Table A2, 3 days after inoculation, 0.5 ppm a.i.): 22% | Efficacy in % found (Phakopsora pachyrhizi; Table D2, 7 days after inoculation, 0.25 ppm a.i.): 8% | Efficacy in % found (Phakopsora pachyrhizi; [11]): 8% | Efficacy in % found (Phakopsora pachyrhizi; [12]): 15% | Efficacy in % found (Puccinia triticina; 40 ppm a.i.): 86% | Efficacy in % found (Septoria tritici; [6]): 38% | Efficacy in % found [1, 7]: 11% | Efficacy in % found (Pyrenophora teres; 80 ppm a.i.): 57%

Cn1cc(C(=O)Nc2ccccc2-c2cc(F)c(F)c(F)c2)c(C(F)F)n1 [(B.3), fluxapyroxad]
Efficacy in % found (Leptosphaeria nodorum; 40 ppm a.i.): 14% | Efficacy in % found (Septoria tritici; [6]): 13%

CO/C=C(/C(=O)OC)c1ccccc1COc1cccc(C(F)(F)F)n1 [(C.2), picoxystrobin]
Efficacy in % found (Phakopsora pachyrhizi; Table D2, 7 days after inoculation, 2 ppm a.i.): 30% | Efficacy in % found ([1]; Table B1, 7 days after inoculation, 20 ppm a.i.): 44%

CON=C(C(=O)OC)c1ccccc1CON=C(C)c1cccc(C(F)(F)F)c1 [(C.4), trifloxystrobin]
Efficacy in % found (Alternaria solani; [2]): 30% | Efficacy in % found (Alternaria solani; [14]): 73% | Efficacy in % found (Phakopsora pachyrhizi; [15]): 0% | Efficacy in % found (Leptosphaeria nodorum; 40 ppm a.i.): 14% | Efficacy in % found (Septoria tritici; Table G2, 21 days after inoculation, 20 ppm a.i.): 75% | Efficacy in % found [1, 8]: 11%

COC(=O)N(OC)c1ccccc1COc1ccn(-c2ccc(Cl)cc2)n1 [(C.3), pyraclostrobin]
Efficacy in % found (Leptosphaeria nodorum; 40 ppm a.i.): 57% | Efficacy in % found (Septoria tritici; [6]): 88%

CC(C)c1ccc(Cl)cc1CN(C(=O)c1c(C(F)F)nn(C)c1F)C1CC1 [(B.8), N-(5-chloro-2-isopropylbenzyl)-N-cyclopropyl-3-(difluoromethyl)-5-fluoro-1-methyl-1H-pyrazole-4-carboxamide]
Efficacy in % found (Alternaria solani; [2]): 45% | Efficacy in % found (Phakopsora pachyrhizi; Table D1, 7 days after inoculation, 20 ppm a.i.): 0% | Efficacy in % found (Phakopsora pachyrhizi; [10]): 0% | Efficacy in % found (Leptosphaeria nodorum; 20 ppm a.i.): 0% | Efficacy in % found (Septoria tritici; [5]): 29%

OC(Cc1ccccc1Cl)(Cn1nc[nH]c1=S)C1(Cl)CC1 (centres unmarked) [(A.3), prothioconazole]
Efficacy in % found (Alternaria solani; [13]): 0% | Efficacy in % found (Alternaria solani; [14]): 24% | Efficacy in % found (Phakopsora pachyrhizi; Table D3, 7 days after inoculation, 1 ppm a.i.): 0% | Efficacy in % found (Phakopsora pachyrhizi; [15]): 35% | Efficacy in % found (Septoria tritici; [5]): 0% | Efficacy in % found [1, 8]: 22% | Efficacy in % found [1, 9]: 22%

CC(C)(C)C(O)(CCc1ccc(Cl)cc1)Cn1cncn1 (centres unmarked) [(A.4), tebuconazole]
Efficacy in % found (Alternaria solani; [2]): 0% | Efficacy in % found (Phakopsora pachyrhizi; [3]): 0% | Efficacy in % found (Phakopsora pachyrhizi; [4]): 30%
